For one substance, disease onset, disease progression and inflammatory reactions results are on record in patent US20210087232A1, “D-ENANTIOMERIC PEPTIDES FOR ANTI-INFLAMMATORY TREATMENT OF AMYOTROPIC LATERAL SCLEROSIS (ALS) AND OTHER DISEASES DRIVEN BY NEURO-INFLAMMATION” (FORSCHUNGSZENTRUM JUELICH GMBH, priority 2018, published 2021).

In the assay the test system is transgenic ALS mice (tg G93R SOD1 mice). Briefly: Treatment studies in transgenic ALS mice: behavioral and motor tests (open field, SHIRPA, pole, hind-leg grip strength, rotarod, hind-leg spread) and histological analyses. Conditions: two treatment studies. The format is in vivo. As to the method:
To analyze the anti-inflammatory effect of RD2RD2 as a potential therapeutic for treating ALS, two treatment studies were carried out in transgenic ALS mice (tg G93R SOD1 mice).
(In general: In the rotarod test animals must keep their balance on a rotating rod.)

Where no end group is shown, it is not given here. [ ]: non-standard residue; d: D form.

Take “ptlhthnrrrrrptlhthnrrrrr ([dP][dT][dL][dH][dT][dH][dN][dR][dR][dR][dR][dR][dP][dT][dL][dH][dT][dH][dN][dR][dR][dR][dR][dR]) [RD2RD2]”: for the setting “behavioral and motor tests”, the disease onset result is “delays disease onset” and the disease progression entry is listed as “slows disease progression”. Under “histological analyses”, the inflammatory reactions entry is listed as “reduces inflammatory reactions”.
